Like-named read-outs stand apart in the source and are kept apart here.
Legend:
[1] = test system: Aβ42; assay: γ-secretase-modulating activity, Method 2: Aβ42 Alphalisa in supernatant of SKNBE2 cells carrying APP 695-wild type (Table 3b); type: cell-based; conditions: overnight
Outline: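 SKNBE2 cells expressing wild-type APP695 were incubated overnight at 37° C. with test compound. Secreted Aβ42 was then measured by AlphaLISA, using a C-terminal Aβ42 antibody paired with an N-terminal Aβ antibody. IC50 came from a 4-parameter fit of percent of compound-free control.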

[2] = test system: Aβtotal; assay: γ-secretase-modulating activity, Method 2: Aβtotal Alphalisa in supernatant of SKNBE2 cells carrying APP 695-wild type (Table 3b); type: cell-based; conditions: overnight, read-out: IC50 Aβtot
Outline: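 SKNBE2 cells expressing wild-type APP 695 were incubated overnight at 37 °C, 5% CO2 with test compound at a range of concentrations. Aβtotal in supernatant was measured by AlphaLISA sandwich (N-terminal JRF/AβN/25 acceptor, biotinylated mid-region 4G8 donor); IC50 from 4-parameter fit of percent control versus log concentration.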

[3] = test system: Aβ42; assay: In vivo efficacy, Method 1: brain soluble Aβ42 lowering 4 h after a single oral dose, ELISA (Table 4a); design: species or system mouse; conditions: dose 30 mg/kg oral dosing
Source text: (§1) To determine whether acute administration of an Aβ42 lowering agent would reduce Aβ42 levels in vivo, non-transgenic rodents, e.g. mice or rats were used. Alternatively, two to three month old Tg2576 mice expressing APP695 containing the “Swedish” variant can be used or a transgenic mouse model developed by Dr. Fred Van Leuven (K.U. Leuven, Belgium) and co-workers, with neuron-specific expression of a clinical mutant of the human amyloid precursor protein [V717I] (Moechars et al., 1999 J. Biol. Chem. 274, 6483). Young transgenic mice have high levels of Aβ in the brain but no detectable Aβ deposition. At approximately 6-8 months of age, the transgenic mice start to display spontaneous, progressive accumulation of β-amyloid (Aβ) in the brain, eventually resulting in amyloid plaques within the subiculum, hippocampus and cortex. Animals treated with the Aβ42 lowering agent were examined and compared to those untreated or treated with vehicle and brain levels of soluble Aβ42 and total Aβ would be quantitated by standard techniques, for example, using ELISA. Treatment periods varied from hours (h) to days and were adjusted based on the results of the Aβ42 lowering once a time course of onset of effect could be established.
(§2) A typical protocol for measuring Aβ42 lowering in vivo is shown but it is only one of many variations that could be used to optimize the levels of detectable Aβ. For example, Aβ42 lowering compounds were formulated in 20% of Captisol® (a sulfobutyl ether of β-cyclodextrin) in water or 20% hydroxypropyl cyclodextrin. The Aβ42 lowering agents were administered as a single oral dose or by any acceptable route of administration to overnight fasted animals. After 4 h, the animals were sacrificed and Aβ42 levels were analysed.
(§3) Blood was collected by decapitation and exsanguinations in EDTA-treated collection tubes. Blood was centrifuged at 1900 g for 10 minutes (min) at 4° C. and the plasma recovered and flash frozen for later analysis. The brain was removed from the cranium and hindbrain. The cerebellum was removed and the left and right hemisphere were separated. The left hemisphere was stored at −18° C. for quantitative analysis of test compound levels. The right hemisphere was rinsed with phosphate-buffered saline (PBS) buffer and immediately frozen on dry ice and stored at −80° C. until homogenization for biochemical assays.
(§4) Mouse brains were resuspended in 10 volumes of 0.4% DEA (diethylamine)/50 mM NaCl pH 10 (for non-transgenic animals) or 0.1% 3-[(3-cholamidopropyl)-dimethyl-ammonio]-1-propanesulfonate (CHAPS) in tris buffered saline (TBS) (for transgenic animals) containing protease inhibitors (Roche-11873580001 or 04693159001) per gram of tissue, e.g. for 0.158 g brain, add 1.58 ml of 0.4% DEA. All samples were sonicated for 30 seconds on ice at 20% power output (pulse mode). Homogenates were centrifuged at 221.300×g for 50 min. The resulting high speed supernatants were then transferred to fresh tubes and were optionally further purified before the next step. A portion of the supernatant was neutralized with 10% 0.5 M Tris-HCl and this was used to quantify Aβtotal.
The obtained supernatants were purified with Water Oasis HLB reverse phase columns (Waters Corp., Milford, Mass.) to remove non-specific immunoreactive material from the brain lysates prior subsequent Aβ detection. Using a vacuum manifold, all solutions were passed through the columns at a rate of approximately 1 ml per min, so the vacuum pressure was adjusted accordingly throughout the procedure. Columns were preconditioned with 1 ml of 100% MeOH, before equilibration with 1 ml of H2O, Non-neutralized brain lysates were loaded onto the columns. The loaded samples were then washed twice with the first wash performed with 1 ml of 5% MeOH, and the second wash with 1 ml of 30% MeOH. Finally, the Aβ was eluted from the columns and into 100×30 mm glass tubes, with a solution of 90% MeOH with 2% NH4OH. […]

[4] = test system: Aβtotal; assay: In vivo efficacy, Method 1: brain soluble Aβtotal lowering 4 h after a single oral dose, ELISA (Table 4a); design: species or system mouse; conditions: dose 30 mg/kg oral dosing
Source text: as §1, §2, §3, §4
To quantify the amount of Aβ42 in the soluble fraction of the brain homogenates, commercially available Enzyme-Linked-Immunosorbent-Assay (ELISA) kits were used (e.g. Innotest® β-Amyloid(1-42), Innogenetics N.V., Ghent, Belgium). The Aβ42 ELISA was performed using the plate provided with the kit only. Briefly, the standards (a dilution of synthetic Aβ1-42) were prepared in 1.5 ml Eppendorf tube in Ultraculture, with final concentrations ranging from 25000 to 1.5 pg/ml. Samples, standards and blanks (60 μl) were added to the anti-Aβ42-coated plate (the capture antibody selectively recognizes the C-terminal end of the antigen). The plate was allowed to incubate overnight at 4° C. in order to allow formation of the antibody-amyloid complex. […]

Structure (SMILES): COc1cc(-c2nc(-c3cccc(C(F)(F)F)c3)n(C(C)C)n2)ccc1-n1cnc(C)c1 [Compound 39]
- IC50 ([1]; Homo sapiens): 105 nM
- IC50 ([2]; Homo sapiens): 7940 nM
- Aβ42 (% Ctrl) _Mean [3]: 17 % Ctrl
- Aβtotal (% Ctrl) _Mean [4]: 0 % Ctrl

Structure (SMILES): COc1cc(-c2nc(C(C)C)n(-c3cccc(C(F)(F)F)c3)n2)ccc1-n1cnc(C)c1.Cl [Compound 32]
- IC50 [1]: 191 nM
- IC50 [2]: 6760 nM
- Aβ42 (% Ctrl) _Mean [3]: 6 % Ctrl
- Aβtotal (% Ctrl) _Mean [4]: 2 % Ctrl

Structure (SMILES): COc1nc(-c2nc(-c3cccc(C(F)(F)F)c3)n(C(C)C)n2)ccc1-n1cnc(C)c1.Cl.Cl [Compound 68]
- IC50 [1]: 135 nM
- IC50 [2]: > 10000 nM
- Aβ42 (% Ctrl) _Mean [3]: 29 % Ctrl
- Aβtotal (% Ctrl) _Mean [4]: −3 % Ctrl
